We go through 6 compounds from publication doi:10.1101/2024.10.18.618978v3 (biorxiv, 2026).

Experiment [1] addresses T1, SpeG (Staphylococcus aureus, UniProt A0A0H2XGJ0).
T1 sequence (A0A0H2XGJ0 1-165): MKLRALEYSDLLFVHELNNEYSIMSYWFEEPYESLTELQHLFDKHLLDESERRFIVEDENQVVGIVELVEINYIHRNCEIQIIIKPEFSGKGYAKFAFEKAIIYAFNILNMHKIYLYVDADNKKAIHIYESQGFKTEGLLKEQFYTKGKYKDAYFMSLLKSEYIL
Briefly: colorimetric DTNB SSAT assay. In kind it is biochemical.

In another experiment the target is SAT1 (Homo sapiens, UniProt P21673). Briefly: colorimetric DTNB SSAT assay. The experiment is classed as biochemical.
Experiment [2] has as its target T1, SpeG. Briefly: thermal shift assay. The experiment is classed as binding. The following applies: 1.6 μM SpeG, 3-fold dilution series of compound; Tm decreased.

Sequence of SAT1 (P21673 whole entry): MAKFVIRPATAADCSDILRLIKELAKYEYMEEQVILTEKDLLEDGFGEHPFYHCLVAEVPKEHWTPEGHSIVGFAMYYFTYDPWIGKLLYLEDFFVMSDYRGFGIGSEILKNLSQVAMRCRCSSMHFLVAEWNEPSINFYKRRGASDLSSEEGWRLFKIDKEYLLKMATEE

For orientation: Ki means the dissociation constant of the complex between target and ligand, obtained from inhibition or displacement. Lower therefore signals higher affinity. As for `CCCCCCCCCCN` [OES2-0077], the inhibition constant Ki at SpeG [1] was 853 ± 238 µM; at SAT1, 743 ± 250 µM.

The compound `CCCCCCCCCCNCCN` [OES2-0086] had a Ki at SpeG [1] of 1200 ± 425 µM.

In turn, `CCCCCCCCNCCN` [OES2-0085] had a Ki on SpeG [1] of 1270 ± 263 µM.

`CCCCCCCCNCCCN` [OES2-0045]: at SAT1, the affinity, expressed as Ki, was 228 ± 49.7 µM.

As for `CCCCCCCCCCCCN` [OES2-0052], the Ki on SpeG [1] amounted to 160 ± 38.3 µM; at SAT1 it was 160 ± 50.4 µM.

For `CCCCCCCCCCCCNCCCN` [OES2-0017], on SpeG [2], the Tm entry was “OES2-0017 titration decreased SpeG Tm”.
